Patent publication US20220119354A1, “DIAMINO-SUBSTITUTED PYRIDINES AND PYRIMIDINES AS HERBICIDES” (FMC Corporation, priority 2019, published 2022)

Columns and labels:
Assay type in all cases: in vivo
[1] = test system: ryegrass, Italian (Lolium multiflorum); assay: Test A preemergence, Italian ryegrass; conditions: 0 to 100 scale; for Ryegrass, Italian plant response rating: 0 is no effect, 100 is complete control
Outline: (§1)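 Post: seedlings 2–10 cm, 1–2 leaves, foliar spray. Pre: soil spray after sowing in loam/sand blend. Both formulated in non-phytotoxic solvent with surfactant; injury scored visually 0–100 after ~10 d.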

[2] = test system: barnyardgrass (Echinochloa crus-galli); assay: Test A postemergence, barnyardgrass; conditions: 0 to 100 scale
Outline: as §1

[3] = test system: pigweed (Amaranthus retroflexus); assay: Test A postemergence, pigweed; conditions: 0 to 100 scale
Outline: as §1

[4] = test system: wheat (Triticum aestivum); assay: Test A postemergence, wheat; conditions: 0 to 100 scale
Outline: as §1

[5] = test system: rice (Oryza sativa); assay: Test B flooded paddy test, rice; conditions: Flood, 250 g ai/ha, applied to paddy water, 2-leaf stage, visual evaluation after 13 to 15 d
Outline: (§2)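 Plants grown to 2-leaf stage. Compounds applied directly into paddy water flooded 3 cm above soil, with that depth kept throughout. After 13–15 d in greenhouse, visual rating versus controls on a 0–100 scale (0 no effect, 100 complete control).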

[6] = test system: blackgrass (Alopecurus myosuroides); assay: Test A postemergence, blackgrass; conditions: 0 to 100 scale
Outline: as §1

[7] = test system: pigweed (Amaranthus retroflexus); assay: Test A preemergence, pigweed; conditions: 0 to 100 scale; for Pigweed plant response rating: 0 is no effect, 100 is complete control
Outline: as §1

[8] = test system: barnyardgrass (Echinochloa crus-galli); assay: Test A preemergence, barnyardgrass; conditions: 0 to 100 scale; for Barnyardgrass plant response rating: 0 is no effect, 100 is complete control
Outline: as §1

[9] = test system: foxtail, giant (Setaria faberii); assay: Test A preemergence, giant foxtail; conditions: 0 to 100 scale; for Foxtail, Giant plant response rating: 0 is no effect, 100 is complete control
Outline: as §1

[10] = test system: corn (Zea mays); assay: Test A postemergence, corn; conditions: 0 to 100 scale
Outline: as §1

[11] = test system: foxtail, giant (Setaria faberii); assay: Test A postemergence, giant foxtail; conditions: 0 to 100 scale
Outline: as §1

[12] = test system: ragweed (common ragweed, Ambrosia elatior); assay: Test A postemergence, ragweed; conditions: 0 to 100 scale
Outline: as §1

[13] = test system: ducksalad (Heteranthera limosa); assay: Test B flooded paddy test, ducksalad; conditions: Flood, 250 g ai/ha, applied to paddy water, 2-leaf stage, visual evaluation after 13 to 15 d
Outline: as §2

[14] = test system: kochia (Kochia scoparia); assay: Test A preemergence, kochia; conditions: 0 to 100 scale; for Kochia plant response rating: 0 is no effect, 100 is complete control
Outline: as §1

[15] = test system: kochia (Kochia scoparia); assay: Test A postemergence, kochia; conditions: 0 to 100 scale
Outline: as §1

[16] = test system: sedge, umbrella (small-flower umbrella sedge, Cyperus difformis); assay: Test B flooded paddy test, umbrella sedge; conditions: Flood, 250 g ai/ha, applied to paddy water, 2-leaf stage, visual evaluation after 13 to 15 d
Outline: as §2

[17] = test system: ryegrass, Italian (Lolium multiflorum); assay: Test A postemergence, Italian ryegrass; conditions: 0 to 100 scale
Outline: as §1

[18] = test system: barnyardgrass (Echinochloa crus-galli); assay: Test B flooded paddy test, barnyardgrass; conditions: Flood, 250 g ai/ha, applied to paddy water, 2-leaf stage, visual evaluation after 13 to 15 d
Outline: as §2

[19] = test system: galium (catchweed bedstraw, Galium aparine); assay: Test A postemergence, galium; conditions: 0 to 100 scale
Outline: as §1

[20] = test system: ragweed (common ragweed, Ambrosia elatior); assay: Test A preemergence, ragweed; conditions: 0 to 100 scale; for Ragweed plant response rating: 0 is no effect, 100 is complete control
Outline: as §1

[21] = 125 g ai/ha, 0 no effect, 100 complete control
[22] = 500 g ai/ha, 0 no effect, 100 complete control

Nc1nc(NC(c2cc3ccccc3s2)C2CC2)ncc1C(F)(F)F (racemic) [Compound 94]
Ryegrass, Italian plant response rating ([1]; 125 g ai/ha): 50 | Ryegrass, Italian plant response rating ([1]; 500 g ai/ha): 90 | Plant response rating, Barnyardgrass [2, 21]: 40 | Plant response rating, Barnyardgrass [2, 22]: 90 | Plant response rating, Pigweed [3, 21]: 90 | Plant response rating, Pigweed [3, 22]: 100 | Plant response rating, Wheat [4, 21]: 0 | Plant response rating, Wheat [4, 22]: 30 | Plant response rating, Rice (0 to 100 scale, 0 is no effect, 100 is complete control) [5]: 10 | Plant response rating, Blackgrass [6, 21]: 0 | Plant response rating, Blackgrass [6, 22]: 0 | Pigweed plant response rating ([7]; 125 g ai/ha): 60 | Pigweed plant response rating ([7]; 500 g ai/ha): 100 | Barnyardgrass plant response rating ([8]; 125 g ai/ha): 0 | Barnyardgrass plant response rating ([8]; 500 g ai/ha): 90 | Foxtail, Giant plant response rating ([9]; 125 g ai/ha): 70 | Foxtail, Giant plant response rating ([9]; 500 g ai/ha): 100 | Plant response rating, Corn [10, 21]: 0 | Plant response rating, Corn [10, 22]: 20 | Plant response rating, Foxtail, Giant [11, 21]: 60 | Plant response rating, Foxtail, Giant [11, 22]: 90 | Plant response rating, Ragweed [12, 21]: 50 | Plant response rating, Ragweed [12, 22]: 70 | Plant response rating, Ducksalad (0 to 100 scale, 0 is no effect, 100 is complete control) [13]: 40 | Kochia plant response rating ([14]; 125 g ai/ha): 60 | Kochia plant response rating ([14]; 500 g ai/ha): 90 | Plant response rating, Kochia [15, 21]: 70 | Plant response rating, Kochia [15, 22]: 90 | Plant response rating, Sedge, Umbrella (0 to 100 scale, 0 is no effect, 100 is complete control) [16]: 45 | Plant response rating, Ryegrass, Italian [17, 21]: 50 | Plant response rating, Ryegrass, Italian [17, 22]: 90 | Plant response rating, Barnyardgrass (0 to 100 scale, 0 is no effect, 100 is complete control) [18]: 35 | Plant response rating, Galium [19, 21]: 40 | Plant response rating, Galium [19, 22]: 80 | Ragweed plant response rating ([20]; 125 g ai/ha): 50 | Ragweed plant response rating ([20]; 500 g ai/ha): 90

Nc1nc(NC(c2coc3ccccc23)C2CC2)ncc1C(F)(F)F (racemic) [Compound 95]
Ryegrass, Italian plant response rating ([1]; 125 g ai/ha): 40 | Ryegrass, Italian plant response rating ([1]; 500 g ai/ha): 60 | Plant response rating, Barnyardgrass [2, 21]: 0 | Plant response rating, Barnyardgrass [2, 22]: 70 | Plant response rating, Pigweed [3, 21]: 100 | Plant response rating, Pigweed [3, 22]: 100 | Plant response rating, Wheat [4, 21]: 0 | Plant response rating, Wheat [4, 22]: 30 | Plant response rating, Rice (0 to 100 scale, 0 is no effect, 100 is complete control) [5]: 0 | Plant response rating, Blackgrass [6, 21]: 0 | Plant response rating, Blackgrass [6, 22]: 70 | Pigweed plant response rating ([7]; 125 g ai/ha): 90 | Pigweed plant response rating ([7]; 500 g ai/ha): 100 | Barnyardgrass plant response rating ([8]; 125 g ai/ha): 80 | Barnyardgrass plant response rating ([8]; 500 g ai/ha): 100 | Foxtail, Giant plant response rating ([9]; 125 g ai/ha): 90 | Foxtail, Giant plant response rating ([9]; 500 g ai/ha): 100 | Plant response rating, Corn [10, 21]: 10 | Plant response rating, Corn [10, 22]: 30 | Plant response rating, Foxtail, Giant [11, 21]: 50 | Plant response rating, Foxtail, Giant [11, 22]: 90 | Plant response rating, Ragweed [12, 21]: 60 | Plant response rating, Ragweed [12, 22]: 80 | Plant response rating, Ducksalad (0 to 100 scale, 0 is no effect, 100 is complete control) [13]: 55 | Kochia plant response rating ([14]; 125 g ai/ha): 80 | Kochia plant response rating ([14]; 500 g ai/ha): 90 | Plant response rating, Kochia [15, 21]: 80 | Plant response rating, Kochia [15, 22]: 90 | Plant response rating, Sedge, Umbrella (0 to 100 scale, 0 is no effect, 100 is complete control) [16]: 70 | Plant response rating, Ryegrass, Italian [17, 21]: 50 | Plant response rating, Ryegrass, Italian [17, 22]: 100 | Plant response rating, Barnyardgrass (0 to 100 scale, 0 is no effect, 100 is complete control) [18]: 35 | Plant response rating, Galium [19, 21]: 80 | Plant response rating, Galium [19, 22]: 80 | Ragweed plant response rating ([20]; 125 g ai/ha): 50 | Ragweed plant response rating ([20]; 500 g ai/ha): 100

CC(Nc1ncc(C(F)(F)F)c(N)n1)c1coc2cccc(F)c12 (racemic) [Compound 96]
Ryegrass, Italian plant response rating ([1]; 125 g ai/ha): 0 | Ryegrass, Italian plant response rating ([1]; 500 g ai/ha): 50 | Plant response rating, Barnyardgrass [2, 21]: 30 | Plant response rating, Barnyardgrass [2, 22]: 40 | Plant response rating, Pigweed [3, 21]: 60 | Plant response rating, Pigweed [3, 22]: 90 | Plant response rating, Wheat [4, 21]: 0 | Plant response rating, Wheat [4, 22]: 0 | Plant response rating, Rice (0 to 100 scale, 0 is no effect, 100 is complete control) [5]: 0 | Plant response rating, Blackgrass [6, 21]: 0 | Plant response rating, Blackgrass [6, 22]: 30 | Pigweed plant response rating ([7]; 125 g ai/ha): 70 | Pigweed plant response rating ([7]; 500 g ai/ha): 90 | Barnyardgrass plant response rating ([8]; 125 g ai/ha): 0 | Barnyardgrass plant response rating ([8]; 500 g ai/ha): 90 | Foxtail, Giant plant response rating ([9]; 125 g ai/ha): 20 | Foxtail, Giant plant response rating ([9]; 500 g ai/ha): 80 | Plant response rating, Corn [10, 21]: 40 | Plant response rating, Corn [10, 22]: 60 | Plant response rating, Foxtail, Giant [11, 21]: 0 | Plant response rating, Foxtail, Giant [11, 22]: 60 | Plant response rating, Ragweed [12, 21]: 20 | Plant response rating, Ragweed [12, 22]: 80 | Plant response rating, Ducksalad (0 to 100 scale, 0 is no effect, 100 is complete control) [13]: 0 | Kochia plant response rating ([14]; 125 g ai/ha): 0 | Kochia plant response rating ([14]; 500 g ai/ha): 0 | Plant response rating, Kochia [15, 21]: 20 | Plant response rating, Kochia [15, 22]: 90 | Plant response rating, Sedge, Umbrella (0 to 100 scale, 0 is no effect, 100 is complete control) [16]: 0 | Plant response rating, Ryegrass, Italian [17, 21]: 0 | Plant response rating, Ryegrass, Italian [17, 22]: 0 | Plant response rating, Barnyardgrass (0 to 100 scale, 0 is no effect, 100 is complete control) [18]: 0 | Plant response rating, Galium [19, 21]: 60 | Plant response rating, Galium [19, 22]: 80 | Ragweed plant response rating ([20]; 125 g ai/ha): 50 | Ragweed plant response rating ([20]; 500 g ai/ha): 70

C[C@@H](Nc1ncc(C(F)(F)F)c(N)n1)c1ccc2ccccc2c1 [Compound 1]
Plant response rating, Ryegrass, Italian ([1]; 125 g ai/ha): 0 | Plant response rating, Ryegrass, Italian ([1]; 500 g ai/ha): 0 | Plant response rating, Barnyardgrass ([2]; 125 g ai/ha): 0 | Plant response rating, Barnyardgrass ([2]; 500 g ai/ha): 0 | Plant response rating, Pigweed ([3]; 125 g ai/ha): 80 | Plant response rating, Pigweed ([3]; 500 g ai/ha): 100 | Plant response rating, Wheat ([4]; 125 g ai/ha): 0 | Plant response rating, Wheat ([4]; 500 g ai/ha): 0 | Plant response rating, Rice (0 to 100 scale, 0 is no effect, 100 is complete control) [5]: 0 | Plant response rating, Blackgrass ([6]; 125 g ai/ha): 0 | Plant response rating, Blackgrass ([6]; 500 g ai/ha): 0 | Plant response rating, Pigweed ([7]; 125 g ai/ha): 10 | Plant response rating, Pigweed ([7]; 500 g ai/ha): 90 | Plant response rating, Barnyardgrass ([8]; 125 g ai/ha): 0 | Plant response rating, Barnyardgrass ([8]; 500 g ai/ha): 0 | Plant response rating, Foxtail, Giant ([9]; 125 g ai/ha): 0 | Plant response rating, Foxtail, Giant ([9]; 500 g ai/ha): 30 | Plant response rating, Corn ([10]; 125 g ai/ha): 0 | Plant response rating, Corn ([10]; 500 g ai/ha): 0 | Plant response rating, Foxtail, Giant ([11]; 125 g ai/ha): 0 | Plant response rating, Foxtail, Giant ([11]; 500 g ai/ha): 0 | Plant response rating, Ragweed ([12]; 125 g ai/ha): 0 | Plant response rating, Ragweed ([12]; 500 g ai/ha): 50 | Plant response rating, Ducksalad (0 to 100 scale, 0 is no effect, 100 is complete control) [13]: 0 | Plant response rating, Kochia ([14]; 125 g ai/ha): 0 | Plant response rating, Kochia ([14]; 500 g ai/ha): 10 | Plant response rating, Kochia ([15]; 125 g ai/ha): 0 | Plant response rating, Kochia ([15]; 500 g ai/ha): 50 | Plant response rating, Sedge, Umbrella (0 to 100 scale, 0 is no effect, 100 is complete control) [16]: 0 | Plant response rating, Ryegrass, Italian ([17]; 125 g ai/ha): 0 | Plant response rating, Ryegrass, Italian ([17]; 500 g ai/ha): 20 | Plant response rating, Barnyardgrass (0 to 100 scale, 0 is no effect, 100 is complete control) [18]: 0 | Plant response rating, Galium ([19]; 125 g ai/ha): 30 | Plant response rating, Galium ([19]; 500 g ai/ha): 70 | Plant response rating, Ragweed ([20]; 125 g ai/ha): 0 | Plant response rating, Ragweed ([20]; 500 g ai/ha): 0
